In ChEMBL document CHEMBL1131124, “Selective inhibitors of human lactate dehydrogenases and lactate dehydrogenase from the malarial parasite Plasmodium falciparum” (J Med Chem, 1998) one finds Ki data, which are given here for three compounds.

Molecules are shown by their SMILES.

As usually defined, the Ki is a measure of affinity in units of concentration, obtained from inhibition or displacement. A high value points to lower affinity.

In this assay the target is L-lactate dehydrogenase B chain (Homo sapiens, UniProt P07195).
L-lactate dehydrogenase B chain, sequence (P07195 whole entry): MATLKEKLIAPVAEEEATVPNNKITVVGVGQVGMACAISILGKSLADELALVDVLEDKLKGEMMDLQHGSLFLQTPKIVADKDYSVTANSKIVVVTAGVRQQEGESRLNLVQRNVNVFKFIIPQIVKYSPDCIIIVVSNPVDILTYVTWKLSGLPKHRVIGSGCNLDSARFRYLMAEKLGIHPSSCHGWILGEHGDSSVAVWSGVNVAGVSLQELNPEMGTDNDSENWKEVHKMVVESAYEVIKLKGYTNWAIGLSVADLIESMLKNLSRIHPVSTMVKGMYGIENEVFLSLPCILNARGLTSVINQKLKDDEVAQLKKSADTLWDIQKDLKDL
Description: inhibitory activity against Human Lactate Dehydrogenase (LDH-H)
As for `CCCc1c(O)c(O)c(C(=O)O)c2cc(Cc3ccccc3)c(C)cc12`, the Ki came out at 1 µM.

The compound `CCCc1c(O)c(O)c(C(=O)O)c2ccc(C)cc12` came in with an inhibition constant Ki of 49 µM.

`Cc1cc2c(C(C)C)c(O)c(O)c(C(=O)O)c2cc1Cc1ccccc1` came in with an inhibitory constant (Ki) of 7 µM. This Ki is about 7-fold lower than that of the compound before.
